Assays:
purple nutsedge = assay: Test B pre/postemergence purple nutsedge; type: in vivo, Cyperus rotundus
Procedure, shortened: (§1)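 Test chemicals in a non-phytotoxic solvent mixture with surfactant were sprayed preemergence onto planted seeds and postemergence onto plants 2 to 18 cm tall (1- to 4-leaf stage). After twelve to sixteen days in a greenhouse, injury was visually rated against untreated controls from 0 (no effect) to 10 (complete control).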

pigweed = assay: Test B pre/postemergence pigweed; type: in vivo, Amaranthus retroflexus
Procedure, shortened: as §1

soybean = assay: Test B pre/postemergence soybean; type: in vivo, Glycine max
Procedure, shortened: as §1

wild oat = assay: Test B pre/postemergence wild oat; type: in vivo, Avena fatua
Procedure, shortened: as §1

rape = assay: Test B pre/postemergence rape; type: in vivo, Brassica napus
Procedure, shortened: as §1

corn = assay: Test B pre/postemergence corn; type: in vivo, Zea mays
Procedure, shortened: as §1

wheat = assay: Test B pre/postemergence wheat; type: in vivo, Triticum aestivum
Procedure, shortened: as §1

cocklebur = assay: Test B pre/postemergence cocklebur; type: in vivo, Xanthium strumarium
Procedure, shortened: as §1

morningglory = assay: Test B pre/postemergence morningglory; type: in vivo, Ipomoea hederacea
Procedure, shortened: as §1

surinam grass = assay: Test B pre/postemergence surinam grass; type: in vivo, Brachiaria decumbens
Procedure, shortened: as §1

crabgrass = assay: Test B pre/postemergence crabgrass; type: in vivo, Digitaria sanguinalis
Procedure, shortened: as §1

blackgrass = assay: Test B pre/postemergence blackgrass; type: in vivo, Alopecurus myosuroides
Procedure, shortened: as §1

bedstraw = assay: Test B pre/postemergence bedstraw; type: in vivo, Galium aparine; details: Preemergence; for Bedstraw plant response rating: scale 0 to 10, 0 is no effect, 10 is complete control
Procedure, shortened: as §1

giant foxtail = assay: Test B pre/postemergence giant foxtail; type: in vivo, Setaria faberii
Procedure, shortened: as §1

velvetleaf = assay: Test B pre/postemergence velvetleaf; type: in vivo, Abutilon theophrasti
Procedure, shortened: as §1

[1] = Postemergence, Rate 62 g/ha, scale of 0 to 10, 0 is no effect, 10 is complete control
[2] = Postemergence, Rate 125 g/ha, scale 0 to 10, 0 is no effect, 10 is complete control
[3] = Postemergence, Rate 500 g/ha, scale 0 to 10, 0 is no effect, 10 is complete control
[4] = Preemergence, Rate 62 g/ha, scale of 0 to 10 where 0 is no effect and 10 is complete control
[5] = Preemergence, Rate 125 g/ha, scale 0 to 10, 0 is no effect, 10 is complete control
[6] = Preemergence, Rate 500 g/ha, scale of 0 to 10 where 0 is no effect and 10 is complete control
[7] = Rate 250 g/ha, Postemergence, scale of 0 to 10 where 0 is no effect and 10 is complete control

Structure (SMILES): CC(C)N(C(=O)n1oc(=O)n(CC2CCC2)c1=O)c1ccc(F)cc1F [Compound 521]
- Nutsedge plant response rating (purple nutsedge; [1]): 0
- Nutsedge plant response rating (purple nutsedge; [2]): 0
- Plant response rating, Nutsedge (purple nutsedge; [3]): 0
- Plant response rating, Nutsedge (purple nutsedge; [4]): 0
- Nutsedge plant response rating (purple nutsedge; [5]): 0
- Nutsedge plant response rating (0 to 10 scale) (purple nutsedge; Preemergence, Rate 250 g/ha): 0
- Nutsedge plant response rating (purple nutsedge; [6]): 0
- Plant response rating, Nutsedge (purple nutsedge; [7]): 0
- Redroot pigweed plant response rating (pigweed; [1]): 0
- Redroot pigweed plant response rating (pigweed; [2]): 0
- Plant response rating, Redroot pigweed (pigweed; [3]): 4
- Plant response rating, Redroot pigweed (pigweed; [4]): 0
- Redroot pigweed plant response rating (pigweed; [5]): 0
- Redroot pigweed plant response rating (0 to 10 scale) (pigweed; Preemergence, Rate 250 g/ha): 0
- Redroot pigweed plant response rating (pigweed; [6]): 0
- Plant response rating, Redroot pigweed (pigweed; [7]): 0
- Soybean plant response rating (soybean; [1]): 4
- Soybean plant response rating (soybean; [2]): 4
- Plant response rating, Soybean (soybean; [3]): 5
- Plant response rating, Soybean (soybean; [4]): 0
- Soybean plant response rating (soybean; [5]): 0
- Soybean plant response rating (0 to 10 scale) (soybean; Preemergence, Rate 250 g/ha): 0
- Soybean plant response rating (soybean; [6]): 0
- Plant response rating, Soybean (soybean; [7]): 5
- Wild oats plant response rating (wild oat; [1]): 0
- Wild oats plant response rating (wild oat; [2]): 0
- Plant response rating, Wild oats (wild oat; [3]): 2
- Plant response rating, Wild oats (wild oat; [4]): 0
- Wild oats plant response rating (wild oat; [5]): 0
- Wild oats plant response rating (0 to 10 scale) (wild oat; Preemergence, Rate 250 g/ha): 0
- Wild oats plant response rating (wild oat; [6]): 2
- Plant response rating, Wild oats (wild oat; [7]): 0
- Rape plant response rating (rape; [1]): 0
- Rape plant response rating (rape; [2]): 0
- Plant response rating, Rape (rape; [3]): 3
- Plant response rating, Rape (rape; [4]): 0
- Rape plant response rating (rape; [5]): 0
- Rape plant response rating (0 to 10 scale) (rape; Preemergence, Rate 250 g/ha): 2
- Rape plant response rating (rape; [6]): 2
- Plant response rating, Rape (rape; [7]): 2
- Corn plant response rating (corn; [1]): 0
- Corn plant response rating (corn; [2]): 0
- Plant response rating, Corn (corn; [3]): 0
- Plant response rating, Corn (corn; [4]): 0
- Corn plant response rating (corn; [5]): 0
- Corn plant response rating (0 to 10 scale) (corn; Preemergence, Rate 250 g/ha): 0
- Corn plant response rating (corn; [6]): 3
- Plant response rating, Corn (corn; [7]): 0
- Wheat plant response rating (wheat; [1]): 0
- Wheat plant response rating (wheat; [2]): 0
- Plant response rating, Wheat (wheat; [3]): 2
- Plant response rating, Wheat (wheat; [4]): 0
- Wheat plant response rating (wheat; [5]): 0
- Wheat plant response rating (0 to 10 scale) (wheat; Preemergence, Rate 250 g/ha): 0
- Wheat plant response rating (wheat; [6]): 0
- Plant response rating, Wheat (wheat; [7]): 0
- Cocklebur plant response rating (cocklebur; [1]): 0
- Cocklebur plant response rating (cocklebur; [2]): 0
- Plant response rating, Cocklebur (cocklebur; [3]): 0
- Plant response rating, Cocklebur (cocklebur; [4]): 0
- Cocklebur plant response rating (cocklebur; [5]): 0
- Cocklebur plant response rating (0 to 10 scale) (cocklebur; Preemergence, Rate 250 g/ha): 0
- Cocklebur plant response rating (cocklebur; [6]): 0
- Plant response rating, Cocklebur (cocklebur; [7]): 0
- Morningglory plant response rating (morningglory; [1]): 3
- Morningglory plant response rating (morningglory; [2]): 4
- Plant response rating, Morningglory (morningglory; [3]): 5
- Plant response rating, Morningglory (morningglory; [4]): 0
- Morningglory plant response rating (morningglory; [5]): 0
- Morningglory plant response rating (0 to 10 scale) (morningglory; Preemergence, Rate 250 g/ha): 0
- Morningglory plant response rating (morningglory; [6]): 0
- Plant response rating, Morningglory (morningglory; [7]): 3
- B. signalgrass plant response rating (surinam grass; [1]): 0
- B. signalgrass plant response rating (surinam grass; [2]): 0
- Plant response rating, B. signalgrass (surinam grass; [3]): 3
- Plant response rating, B. signalgrass (surinam grass; [4]): 0
- B. signalgrass plant response rating (surinam grass; [5]): 0
- B. signalgrass plant response rating (0 to 10 scale, 0 is no effect, 10 is complete control) (surinam grass; Preemergence, Rate 250 g/ha): 0
- B. signalgrass plant response rating (surinam grass; Preemergence, Rate 500 g/ha, scale 0 to 10, 0 is no effect, 10 is complete control): 9
- Plant response rating, B. signalgrass (surinam grass; [7]): 0
- Crabgrass plant response rating (crabgrass; [1]): 2
- Crabgrass plant response rating (crabgrass; [2]): 4
- Plant response rating, Crabgrass (crabgrass; [3]): 10
- Plant response rating, Crabgrass (crabgrass; [4]): 10
- Crabgrass plant response rating (crabgrass; [5]): 10
- Crabgrass plant response rating (0 to 10 scale) (crabgrass; Preemergence, Rate 250 g/ha): 10
- Crabgrass plant response rating (crabgrass; [6]): 10
- Plant response rating, Crabgrass (crabgrass; [7]): 10
- Blackgrass plant response rating (blackgrass; [1]): 2
- Blackgrass plant response rating (blackgrass; [2]): 2
- Plant response rating, Blackgrass (blackgrass; [3]): 9
- Plant response rating, Blackgrass (blackgrass; [4]): 0
- Blackgrass plant response rating (blackgrass; [5]): 0
- Blackgrass plant response rating (0 to 10 scale) (blackgrass; Preemergence, Rate 250 g/ha): 0
- Blackgrass plant response rating (blackgrass; [6]): 3
- Plant response rating, Blackgrass (blackgrass; [7]): 7
- Plant response rating, Bedstraw (bedstraw; Rate 62 g/ha, scale of 0 to 10 where 0 is no effect and 10 is complete control): 0
- Bedstraw plant response rating (bedstraw; Rate 125 g/ha): 0
- Bedstraw plant response rating (0 to 10 scale) (bedstraw; Rate 250 g/ha): 0
- Bedstraw plant response rating (bedstraw; Rate 500 g/ha): 0
- Giant foxtail plant response rating (giant foxtail; [1]): 4
- Giant foxtail plant response rating (giant foxtail; [2]): 8
- Plant response rating, Giant foxtail (giant foxtail; [3]): 9
- Plant response rating, Giant foxtail (giant foxtail; [4]): 10
- Giant foxtail plant response rating (giant foxtail; [5]): 10
- Giant foxtail plant response rating (0 to 10 scale) (giant foxtail; Preemergence, Rate 250 g/ha): 10
- Giant foxtail plant response rating (giant foxtail; [6]): 10
- Plant response rating, Giant foxtail (giant foxtail; [7]): 9
- Velvetleaf plant response rating (velvetleaf; [1]): 0
- Velvetleaf plant response rating (velvetleaf; [2]): 0
- Plant response rating, Velvetleaf (velvetleaf; [3]): 3
- Plant response rating, Velvetleaf (velvetleaf; [4]): 0
- Velvetleaf plant response rating (velvetleaf; [5]): 0
- Velvetleaf plant response rating (0 to 10 scale) (velvetleaf; Preemergence, Rate 250 g/ha): 2
- Velvetleaf plant response rating (velvetleaf; [6]): 3
- Plant response rating, Velvetleaf (velvetleaf; [7]): 2

From patent US6737383B1, “Herbicidal oxadiazolidines” (priority 1999, dated 2004)
